{
  "source": "patent US8143409B2",
  "about": "“Crystalline form of rabeprazole sodium” (Dipharma Francis S.R.L., priority 2006, dated 2012)",
  "key": {"[1]": {"test": "Thermodynamic stability by comparing DSC thermograms", "assay_type": "physicochemical", "settings": "compared with known hydrate forms α and β, by comparing the respective DSC thermograms", "procedure": "DSC thermograms were recorded with a Mettler-Toledo differential scansion calorimeter DSC 822, under the following operative conditions: aluminium capsules, 30-400° C. range with increase of 10° C./min, under nitrogen as purging gas (80 ml/min)."}, "[2]": {"test": "Stability of the crystalline hydrate form at room temperature", "assay_type": "physicochemical", "settings": "compared with hydrated crystalline forms alpha and beta"}, "[3]": {"settings": "isomorphic forms of EP 1674463; makes handling and storing easy; cited from earlier work"}},
  "data": [
    {"compound": "COCCCOc1ccnc(C[S+]([O-])c2nc3ccccc3[n-]2)c1C.[Na+]", "note": "(stereo not drawn) [Form γ, 2-[[[4-(3-methoxypropoxy)-3-methyl-2-pyridinyl]-methyl]sulfinyl]-1H-benzylimidazole sodium salt]", "values": [
      {"measurement": "thermodynamic stability", "setting": "[1]", "result": "thermodynamically more stable than the known hydrate forms α and β"},
      {"measurement": "stability", "setting": "[2]", "result": "more stable at room temperature"}
    ]},
    {"compound": "COCCCOc1ccnc(C[S+]([O-])c2nc3ccccc3[n-]2)c1C.[Na+]", "note": "(stereo not drawn) [alpha]", "values": [
      {"measurement": "hygroscopicity", "setting": "[3]", "result": "low hygroscopicity"}
    ]}
  ]
}
